Laboratory results from US20030134859A1 (SANKYO COMPANY, LIMITED, priority 2000, published 2003).
Like-named read-outs stand apart in the source and are kept apart here.

Columns and labels:
[1] = tested on: Mouse preadipocyte strain 3T3-L1; test: Inhibition of differentiation as an indication of acetic acid uptake; assay type: cell-based; settings: Mus musculus, 3T3-L1, 0.1 μM test substance, control (0.01% dimethylsulfoxide) = 100%, read-out: Rate of Uptake (%) of [2-14C] acetic acid
In short: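 Differentiation is indexed by 1 hr [2-14C]acetic acid incorporation, measured by scintillation counting and given as uptake relative to 0.01% DMSO control (100%). Mouse 3T3-L1 preadipocytes, pre-grown 10 days, received 0.1 μM test substance throughout a 4-day insulin/IBMX/dexamethasone induction, followed by 2 days' maintenance culture.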

[2] = tested on: TNF-α production; test: Inhibitory activity against cytokine (TNF-α) production in LPS-stimulated RAW264.7 cells; assay type: cell-based, mouse; settings: Mus musculus, RAW264.7, 15 h, 1 μM test compound, LPS 10 ng/mL
In short: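 Mouse RAW264.7 macrophages (5,000 cells/well) stimulated with 10 ng/mL LPS (final) and treated with test compound at 1 μM final for 15 h at 37 °C. Supernatant mouse TNF-α measured by ELISA; % inhibition = 100−(A−B)/(C−B)×100, using unstimulated and LPS-only controls.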

[3] = tested on: Balb/c mice; test: Prevention of concanavalin A liver injury; assay type: in vivo, mouse; settings: Mus musculus, po, 24 h, 10 mg/mL suspension at 10 mL/kg, 30 min prior to Con A, plasma 24 hr after Con A
Method: Five (5) Balb/c mice (female, 6-8 weeks old) per group were used. Liver injury was elicited in the mouse by injection of concanavalin A (Con A) dissolved in saline (2.0 mg/mL) into the tail vein at a volume of 10 mL/kg of the solution (Hepatology, 21, 190-198 (1995)).
The test compounds were suspended in distilled water containing 0.5% CMC, at a concentration of 10 mg/mL. This suspended solution was orally administered to the mouse at a volume of 10 mL/kg, 30 min prior to injection of Con A (group A).
Apart from this group, distilled water containing 0.5% CMC powder, instead of the test compound, was orally administered in the second group of mice (group B). In the 3rd group, nothing was given to the mice (group C).
Twenty four (24) hr after the injection of Con A, blood was collected from the abdominal aorta of the mice and the plasma was isolated while mixing with heparin. Activities of glutamic acid oxaloacetic acid transaminase (AST) and glutamic acid pyruvic acid transaminase (ALT) in the plasma were determined according to the methods described by Nagakawa et al. (J. Pharmacol. Exp. Ther., 264, 496-500 (1993)). From the values obtained inhibitory rates of the test compound against AST and ALT levels which had been increased by injection of Con A, were obtained based on the following equation.
Inhibitory Rate(%)={1−[(A−C)/(B−C)]}×100
A: The average level of AST or ALT in the group A
B: The average level of AST or ALT in the group B
C: The average level of AST or ALT in the group C

[4] = tested on: lenses; test: Cataract assessment: opacity of cultured lenses exposed to hydrogen peroxide; parameters: species or system rat; settings: 100 nM test compound with 5 mM hydrogen peroxide; 24 hr; clear: 0, slightly opaque: 1, moderately opaque: 2
Method: The lenses were isolated from Sprague-Dawley rats (male, purchased from SLC Japan), and the lenses were pre-cultured in a medium (Medium-199: GIBCO BRL) for 3 hr and the lenses maintaining transparency were selected and used in the experiment. The crystalline lenses were cultured for 24 hr in the following 3 groups; 1) in Medium-199 (3 mL), 2) in Medium-199 (3 mL) containing hydrogen peroxide (final concentration: 5 mM) and 3) in Medium-199 (3 mL) containing the test compound (final concentration: 100 nM), DMSO (final concentration: 0.1% v/v) and hydrogen peroxide (final concentration: 5 mM). After finalising culturing, the opacity of the lens was scored based on the following criteria: clear: 0, slightly opaque: 1, moderately opaque: 2. Thus the improving effect of the test compound on cataracts was assessed.

[5] = tested on: Rat white adipocytes; test: Stimulation of differentiation of the adipocytes (Oil Red O); assay type: cell-based; settings: Rattus norvegicus, Adipocyte, 120 h, 100 nM test compound; 5 days; Oil Red O ABS550; control = 100%, blank = 0%; Table 7; read-out: Rate of Differentiation (%)
In short: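 Oil Red O lipid staining, absorbance 550 nm after DMSO extraction, quantified differentiation of rat white adipocytes exposed 5 days to compound (final 100 nM, 0.1% DMSO) in differentiation medium. Percent differentiation normalised between cell-free blank (0%) and DMSO control (100%).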

[6] = read-out: Preventing rate against liver injury, ALT (%)
[7] = read-out: Preventing rate against liver injury, AST (%)

In the case of `CN(C)c1ccc(-c2ccc(NC(=O)c3cc([N+](=O)[O-])ccc3Cl)cc2)cc1` [Example 53, N-[4-(4-Dimethylaminophenyl)phenyl]-(2-chloro-5-nitrophenyl)carboxamide], the activity at 0.1 µM [1] is reported as 76.2%, the inhibition at 1 µM [2] is reported as 15.6% and the inhibition in vivo at 10000 µg/mL, 100 mg/kg [3, 6] is reported as 22%. The inhibition in vivo at 10000 µg/mL, 100 mg/kg [3, 7] was 1.7% and the “opacity of the lens (average score)” value [4] was 1.0.
With `CS(=O)(=O)Nc1ccc(NC(=O)c2cc([N+](=O)[O-])ccc2Cl)cc1` [Example 136, N-(4-Methanesulfonylaminophenyl)-(2-chloro-5-nitrophenyl)carboxamide] the activity at 0.1 µM [1] was 88.9%, the activity at 0.1 µM [5] was 129% and the inhibition in vivo at 10000 µg/mL, 100 mg/kg [3, 6] was 13.1%. The inhibition in vivo at 10000 µg/mL, 100 mg/kg [3, 7] was 12%.
For `CC(C)(C)c1cc(-c2csc(NC(=O)c3cc([N+](=O)[O-])ccc3Cl)n2)cc(C(C)(C)C)c1O` [Example 139, N-[4-(3,5-di-tert-Butyl-4-hydroxyphenyl)thiazol-2-yl]-(2-chloro-5-nitrophenyl)carboxamide], the activity at 0.1 µM [1] was 59.2%, the inhibition at 1 µM [2] was 42.7% and the inhibition in vivo at 10000 µg/mL, 100 mg/kg [3, 6] was 54%. The inhibition in vivo at 10000 µg/mL, 100 mg/kg [3, 7] was 48.4% and the “opacity of the lens (average score)” value [4] was 1.0.
`Cc1ccc(NS(=O)(=O)c2cccc(NC(=O)c3cc([N+](=O)[O-])ccc3Cl)c2)cc1` [Example 142, N-[3-(4-Tolylaminosulfonyl)phenyl]-(2-chloro-5-nitrophenyl)carboxamide] gave an activity at 0.1 µM [1] of 74.4%, an activity at 0.1 µM [5] of 112% and an inhibition in vivo at 10000 µg/mL, 100 mg/kg [3, 6] of 54%. The inhibition in vivo at 10000 µg/mL, 100 mg/kg [3, 7] was 63%.
